The values below come from patent US20200008825A1, “SUSTAINED INTRATONSILLAR DRUG DELIVERY WITH NEEDLE ARRAY” (SOUTHERN RESEARCH INSTITUTE, priority 2017, published 2020).

This test deals with CD3 positive T-cells in rabbit tonsils. The test can be described thus: percentage of CD3 positive T-cells in rabbit tonsils injected with mometasone versus control (FIG. 11). Format: in vivo. The source says: FIG. 11 includes a graph illustrating a percentage of cluster-of-differentiation-3 (CD3) T-cell co-receptors in a rabbit when treated with mometasone versus a control. Referring now to FIG. 11, a graph is shown illustrating a percentage of cluster-of-differentiation-3 (CD3) T-cell co-receptors in a rabbit when treated with mometasone versus a control. In immunology, the CD3 T-cell co-receptor helps to activate both the cytotoxic T-Cell (CD8+ naive T cells) and also T helper cells (CD4+ naive T cells). CD3 consists of a protein complex and is composed of four distinct chains.

As to `C[C@@H]1C[C@H]2[C@@H]3CCC4=CC(=O)C=C[C@]4(C)[C@@]3(Cl)[C@@H](O)C[C@]2(C)[C@@]1(O)C(=O)CCl` [mometasone], the “CD3 positive T-cells (percentage)” value is recorded as “significantly lower”.
